What was measured:
Experiment in all cases: 3' UTR reporter interaction score (median-centred robust z-score of log2 firefly/Renilla activity); higher = less repression of the 3' UTR reporter
Conditions in all cases: HEK293T; 48 h
[1] = tested on: HRAS
Procedure, shortened: (§1)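 Using DharmaFECT Duo, HEK293T cells (10,000/well, 96-well plates) were co-transfected with 2.5 pmol miRNA mimic, 100 ng firefly luc2P reporter containing the gene's 3' UTR and 20 ng Renilla pRL-TK control, and dual-luciferase activity was read 48 h later. The interaction score is the log firefly/Renilla ratio as a per-plate robust z-score (median, median absolute deviation), median-centred per miRNA, averaged over at least two independent screens; lower, more negative values indicate interaction.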

[2] = tested on: PHF6
Procedure, shortened: as §1

[3] = tested on: MYT1L
Procedure, shortened: as §1

[4] = tested on: EZH2
Procedure, shortened: as §1

[5] = tested on: PHOX2B
Procedure, shortened: as §1

[6] = tested on: NOTCH1
Procedure, shortened: as §1

[7] = tested on: ZEB2
Procedure, shortened: as §1

[8] = tested on: MYC
Procedure, shortened: as §1

[9] = tested on: TP53
Procedure, shortened: as §1

[10] = tested on: MYCN
Procedure, shortened: as §1

[11] = tested on: FBXW7
Procedure, shortened: as §1

[12] = tested on: MYB
Procedure, shortened: as §1

[13] = tested on: BRCA2
Procedure, shortened: as §1

[14] = tested on: RB1
Procedure, shortened: as §1

Sequence	3' UTR reporter interaction score [1]	3' UTR reporter interaction score [2]	3' UTR reporter interaction score [3]	3' UTR reporter interaction score [4]	3' UTR reporter interaction score [5]	3' UTR reporter interaction score [6]	3' UTR reporter interaction score [7]	3' UTR reporter interaction score [8]	3' UTR reporter interaction score [9]	3' UTR reporter interaction score [10]	3' UTR reporter interaction score [11]	3' UTR reporter interaction score [12]	3' UTR reporter interaction score [13]	3' UTR reporter interaction score [14]
UAAUGCCCCUAAAAAUCCUUAU	-0.275	2.31	0.18	0.868	0.54	-0.347	-2.81	0.136	-0.124	-0.732	1.16	-1.05	1.14	-0.537
UAAAUCCCAUGGUGCCUUCUCCU	-0.598	1.14	-0.319	0.24	0.298	0.16	-0.698	0.0891	0.00864	1.04	-0.794	-0.131	0.0242	0.989
UCAGAACAAAUGCCGGUUCCCAGA	1.03	0.882	-0.318	0.61	-0.368	-0.509	0.0144	0.178	-1.5	0.0784	0.465	0.483	-0.146	-0.316
CAUUGCACUUGUCUCGGUCUGA	-0.416	-1.24	0.397	0.125	-0.664	-0.145	-2.69	0.278	-0.48	-0.0953	-0.0954	-0.142	0.658	0.825
AGCAGCAUUGUACAGGGCUAUCA	0.106	1.3	-2.1	-1	-0.507	-0.476	1.43	0.869	-0.509	0.215	-2.69	-2.18	1.96	1.3
GAAAACAGCAAUUACCUUUGCA	-0.7	-0.427	-0.261	0.37	0.0564	-1.34	0.263	-0.413	-0.0426	0.734	0.0135	-1.17	0.212	0.347
CAACCUGGAGGACUCCAUGCUG	0.685	-0.934	0.329	0.157	-0.796	-0.127	0.335	0.486	0.0572	0.831	0.0371	1.15	0.635	-2.92
GAAGGCGCUUCCCUUUGGAGU	-1.8	0.395	0.212	-1.48	2.09	-0.115	1.47	-1.08	-0.237	-0.406	0.348	-0.216	0.864	0.389
AGUGUGGCUUUCUUAGAGC	0.377	-0.715	-0.23	-0.421	1.11	-0.152	0.748	-0.501	-0.0434	0.47	1.11	0.805	-3.13	-0.335
UUUAACAUGGGGGUACCUGCUG	0.621	0.182	-0.244	0.537	-1.08	-0.514	-0.448	-0.0461	-0.238	0.0587	0.198	-1.1	1.26	0.395
AUCAGCAAACAUUUAUUGUGUG	-1.06	1.01	-0.934	-1.04	1.35	0.157	1.25	-0.19	0.16	-0.181	-0.701	1.62	0.0901	1.07
UAUGCAUUGUAUUUUUAGGUCC	0.558	-1.28	-0.778	0.224	-2.52	0.872	-1.13	0.248	-0.83	-0.281	-0.388	-1.29	0.674	0.308
CCUCUAGAUGGAAGCACUGUCU	0.49	0.44	-0.377	0.875	-0.512	0.00559	0.763	-0.352	-0.0691	-0.452	-0.485	1.05	1.43	1.24
UAGCAGCACAUCAUGGUUUACA	-0.34	0.453	-3.09	-0.225	0.488	-0.541	2.82	0.39	-0.579	0.0626	-2.93	-1.34	-0.138	0.792
UAUGUAAUAUGGUCCACAUCUU	-0.0539	-0.945	1.41	-0.223	0.805	0.765	-1.16	0.455	-0.793	0.254	0.706	0.474	-0.619	0.421
UGAGGUAGUAGGUUGUAUAGUU	0.245	2.23	-0.405	-3.3	-1.51	-0.241	-0.683	-1.94	0.766	-4.02	0.0535	0.376	0.954	-1.04
AAAGUGCAUCCUUUUAGAGUGUUAC	0.648	-0.315	-1.2	-0.596	-0.251	2.14	0.599	0.046	1.22	1.43	0.956	-1.8	-0.464	0.0975

Sequence	3' UTR reporter interaction score [1]	3' UTR reporter interaction score [2]	3' UTR reporter interaction score [3]	3' UTR reporter interaction score [4]	3' UTR reporter interaction score [5]	3' UTR reporter interaction score [6]	3' UTR reporter interaction score [7]	3' UTR reporter interaction score [8]	3' UTR reporter interaction score [9]	3' UTR reporter interaction score [10]	3' UTR reporter interaction score [11]	3' UTR reporter interaction score [12]	3' UTR reporter interaction score [13]	3' UTR reporter interaction score [14]
ACAAAGUGCUUCCCUUUAGAGUGU	0.36	-0.618	-0.448	-0.507	1.18	0.486	-0.058	-0.0807	-0.281	-0.406	-0.043	0.347	-0.733	0.896
UGGCAGUGUAUUGUUAGCUGGU	1.02	-3.24	-0.141	-0.805	-0.186	-4.47	0.089	-2.6	0.314	-4.71	0.551	-4.53	0.888	-0.641
GAAGUGUGCCGUGGUGUGUCU	-0.384	-0.942	-1.67	-0.113	1.74	-0.516	-0.231	-0.0876	0.832	-0.199	1.69	-0.373	-0.0229	0.538
AGACCCUGGUCUGCACUCUAU	1.38	-3.41	-1.4	2.76	-0.928	-0.49	-0.0019	2.47	-5.07	1.92	1.02	0.748	0.647	-2.99
ACUCAAAAUGGGGGCGCUUUCC	0.68	2.12	0.0549	0.137	0.0383	-0.52	0.347	0.445	-0.765	-0.623	-0.231	-0.497	-0.27	0.824
AAACUCUACUUGUCCUUCUGAGU	0.16	-0.863	-0.888	-0.108	0.571	0.753	-1.55	-0.658	0.757	-0.333	2.09	0.312	1.32	0.409
UGUGACAGAUUGAUAACUGAAA	-0.136	-0.291	-1.77	0.213	1.05	1.11	0.919	0.173	0.555	0.0393	-0.255	0.185	-1.43	0.581
UUACAGUUGUUCAACCAGUUACU	0.218	1.47	0.162	0.156	-0.835	-0.374	-1.76	0.385	0.131	-1.85	-1.36	-0.553	1.74	-3.47
UCACAGUGAACCGGUCUCUUUU	-2.6	1.79	-2.56	0.47	-1.31	-0.144	-4.74	-0.0365	0.412	1.36	-1.07	0.662	-0.31	1.15
UGUAAACAUCCCCGACUGGAAG	0.945	0.331	0.873	0.0787	0.775	-0.121	-1.09	-0.345	-0.339	-1	0.0307	0.447	-0.00428	1.18
AGGCUGCGGAAUUCAGGAC	-1.18	1.89	1.31	-1.27	-0.147	0.93	2.21	-0.912	-1.78	0.119	0.871	0.132	-1.7	0.76
UCUGGCUCCGUGUCUUCACUCC	1.54	-0.567	1.3	0.8	1.22	-2.05	1.83	-0.629	0.211	1.42	-0.481	-1.3	0.156	0.119
UUCACAGUGGCUAAGUUCUGC	-1.25	0.752	0.34	-0.367	0.845	1.04	0.787	-0.0656	-0.662	0.736	-3.31	1.56	-0.687	0.0429
UAGUGCAAUAUUGCUUAUAGGGUUU	0.0165	0.108	0.572	-1.22	-0.0733	0.766	-0.0644	0.454	-1.04	0.515	0.629	-2.42	-0.656	1.16
UGUUUGCAGAGGAAACUGAGAC	1.34	-0.0326	-0.13	0.739	-0.484	-0.933	-1.2	0.778	-0.173	0.322	-1.52	1.43	-0.0179	-0.175
UCCCUGAGACCCUAACUUGUGA	1.12	0.386	0.796	0.82	-1.65	-0.154	1.05	1.24	-1.15	0.264	-0.252	-0.19	1.7	-0.398
UACCCUGUAGAUCCGAAUUUGUG	1.04	-0.356	-2.08	1.17	-1.36	-2.62	-1.18	0.449	-0.88	-0.296	-0.445	0.0301	0.0748	0.397
